Experimental findings from patent publication US20060269950A1, “Method of identifying compounds that modulate interaction of androgen receptor with beta-catenin” (Wyeth, priority 2005, published 2006) are described below.

The target in experiment [1] is T1, interaction between AR and β-catenin (Homo sapiens, UniProt P10275).
T1 construct: The AR expression vector is human full length AR cDNA in pcDNA3; expressed in transfected cells; host or cells: CV-1 cells
T1 sequence (P10275 1-920): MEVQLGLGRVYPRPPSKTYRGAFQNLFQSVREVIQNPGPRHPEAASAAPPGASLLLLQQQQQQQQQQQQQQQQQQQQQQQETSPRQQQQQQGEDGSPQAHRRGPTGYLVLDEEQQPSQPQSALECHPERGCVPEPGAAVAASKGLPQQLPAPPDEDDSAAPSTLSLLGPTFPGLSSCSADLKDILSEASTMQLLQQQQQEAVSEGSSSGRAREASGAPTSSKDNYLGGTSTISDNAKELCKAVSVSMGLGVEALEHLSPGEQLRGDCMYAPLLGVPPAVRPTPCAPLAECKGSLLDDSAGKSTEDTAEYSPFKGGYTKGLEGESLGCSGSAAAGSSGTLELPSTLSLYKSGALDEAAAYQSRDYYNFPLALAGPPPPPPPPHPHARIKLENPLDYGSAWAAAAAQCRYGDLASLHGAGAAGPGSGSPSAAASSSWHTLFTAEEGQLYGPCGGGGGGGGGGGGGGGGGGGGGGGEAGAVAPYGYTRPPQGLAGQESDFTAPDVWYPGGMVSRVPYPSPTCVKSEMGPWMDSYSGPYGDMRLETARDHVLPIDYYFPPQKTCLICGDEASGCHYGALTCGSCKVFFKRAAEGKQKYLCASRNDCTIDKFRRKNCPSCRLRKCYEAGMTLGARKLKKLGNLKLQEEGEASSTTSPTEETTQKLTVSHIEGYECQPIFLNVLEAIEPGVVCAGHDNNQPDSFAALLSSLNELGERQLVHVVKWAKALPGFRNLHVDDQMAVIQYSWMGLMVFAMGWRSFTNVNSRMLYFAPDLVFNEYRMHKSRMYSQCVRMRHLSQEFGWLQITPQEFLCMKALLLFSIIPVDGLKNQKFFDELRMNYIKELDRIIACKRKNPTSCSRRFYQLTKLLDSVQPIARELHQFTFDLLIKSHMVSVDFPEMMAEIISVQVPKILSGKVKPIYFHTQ
As to the kind of experiment: One-hybrid GAL4-β-catenin/AR luciferase reporter assay in CV-1 cells. The format is cell-based, African green monkey. Particulars: AR expressing CV-1 cells, 10 nM, 18 hours. The procedure:
(§1) CV-1 cells were cultured on 96 well plates and transfected after 24 hours with the expression and reporter plasmids using the lipofectamine procedure (Invitrogen). In this procedure, the three different plasmid constructs used were mixed in cell culture media and lipofectamine and incubated for 15 minutes according to the manufacturer's instructions (Invitrogen). The plasmid-lipofectamine mixture was diluted in culture medium, added to cells, and incubated for 4 hours. The cells were rinsed and then treated with culture media. Twenty-four hours after transfection, the cells were treated with androgen agonists and antagonists or vehicle. After 18 hours, cell lysates were harvested and assayed for luciferase activity using luciferase reagent (Promega) and a luminometer (Wallac). Other known transfection techniques can be used including, for example, calcium phosphate precipitation transfection technique.
(§2) Cell lysates were harvested and analyzed for luciferase activity.
(§3) CV-1 cells were transfected with the 5XGAL4-luciferase reporter and the GAL4-O-catenin expression plasmid in the absence of a nuclear receptor expression vector (−), with the AR, PR, or ER expression plasmid. […] Cell lysates were harvested and analyzed for luciferase activity.
as §2
(In general: In a reporter assay the amount or activity of a reporter protein is the signal.)

The test system of experiment [2] is estrogen receptor (ER) interaction with β-catenin. Description: One-hybrid GAL4-β-catenin luciferase reporter assay in CV-1 cells with ER expression plasmid. The format is cell-based. The conditions noted are these: 10 nM, 18 hours. The procedure: as §1, §3
Experiment [3] concerns the target T2, progesterone receptor (PR) interaction with β-catenin (Homo sapiens, UniProt P06401).
T2 construct: expressed in transfected cells; host or cells: CV-1 cells
T2 sequence (P06401 1-933): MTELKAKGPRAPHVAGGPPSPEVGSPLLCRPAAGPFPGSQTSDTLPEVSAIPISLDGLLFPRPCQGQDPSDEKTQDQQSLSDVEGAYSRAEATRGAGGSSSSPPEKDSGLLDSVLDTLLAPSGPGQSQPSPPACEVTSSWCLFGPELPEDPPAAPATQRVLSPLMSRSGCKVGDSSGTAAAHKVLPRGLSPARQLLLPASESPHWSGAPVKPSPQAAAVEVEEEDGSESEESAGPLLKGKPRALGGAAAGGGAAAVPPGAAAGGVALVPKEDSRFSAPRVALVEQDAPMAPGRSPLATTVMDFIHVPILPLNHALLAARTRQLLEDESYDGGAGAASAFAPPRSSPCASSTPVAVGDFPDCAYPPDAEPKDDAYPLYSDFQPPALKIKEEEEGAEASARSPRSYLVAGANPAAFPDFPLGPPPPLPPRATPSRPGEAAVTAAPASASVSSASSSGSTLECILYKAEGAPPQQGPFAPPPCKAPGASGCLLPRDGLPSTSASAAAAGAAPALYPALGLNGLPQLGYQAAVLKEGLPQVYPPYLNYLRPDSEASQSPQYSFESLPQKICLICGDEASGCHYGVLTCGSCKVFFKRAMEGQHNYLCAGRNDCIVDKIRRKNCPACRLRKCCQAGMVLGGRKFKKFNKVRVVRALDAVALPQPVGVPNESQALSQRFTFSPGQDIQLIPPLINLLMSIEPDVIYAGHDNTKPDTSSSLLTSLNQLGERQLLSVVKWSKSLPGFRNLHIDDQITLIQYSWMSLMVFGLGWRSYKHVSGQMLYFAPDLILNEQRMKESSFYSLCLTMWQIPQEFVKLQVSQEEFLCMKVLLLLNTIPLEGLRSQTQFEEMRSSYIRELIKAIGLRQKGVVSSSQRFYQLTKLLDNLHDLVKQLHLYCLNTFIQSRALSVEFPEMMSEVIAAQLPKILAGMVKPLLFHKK
Description: One-hybrid GAL4-β-catenin luciferase reporter assay in CV-1 cells with PR expression plasmid. The experiment is classed as cell-based. The conditions noted are these: 10 nM, 18 hours. The procedure: as §1, §3

Experiment [4] addresses T3, interaction between AR and β-catenin (Mus musculus, UniProt P19091).
T3 sequence (P19091 1-899): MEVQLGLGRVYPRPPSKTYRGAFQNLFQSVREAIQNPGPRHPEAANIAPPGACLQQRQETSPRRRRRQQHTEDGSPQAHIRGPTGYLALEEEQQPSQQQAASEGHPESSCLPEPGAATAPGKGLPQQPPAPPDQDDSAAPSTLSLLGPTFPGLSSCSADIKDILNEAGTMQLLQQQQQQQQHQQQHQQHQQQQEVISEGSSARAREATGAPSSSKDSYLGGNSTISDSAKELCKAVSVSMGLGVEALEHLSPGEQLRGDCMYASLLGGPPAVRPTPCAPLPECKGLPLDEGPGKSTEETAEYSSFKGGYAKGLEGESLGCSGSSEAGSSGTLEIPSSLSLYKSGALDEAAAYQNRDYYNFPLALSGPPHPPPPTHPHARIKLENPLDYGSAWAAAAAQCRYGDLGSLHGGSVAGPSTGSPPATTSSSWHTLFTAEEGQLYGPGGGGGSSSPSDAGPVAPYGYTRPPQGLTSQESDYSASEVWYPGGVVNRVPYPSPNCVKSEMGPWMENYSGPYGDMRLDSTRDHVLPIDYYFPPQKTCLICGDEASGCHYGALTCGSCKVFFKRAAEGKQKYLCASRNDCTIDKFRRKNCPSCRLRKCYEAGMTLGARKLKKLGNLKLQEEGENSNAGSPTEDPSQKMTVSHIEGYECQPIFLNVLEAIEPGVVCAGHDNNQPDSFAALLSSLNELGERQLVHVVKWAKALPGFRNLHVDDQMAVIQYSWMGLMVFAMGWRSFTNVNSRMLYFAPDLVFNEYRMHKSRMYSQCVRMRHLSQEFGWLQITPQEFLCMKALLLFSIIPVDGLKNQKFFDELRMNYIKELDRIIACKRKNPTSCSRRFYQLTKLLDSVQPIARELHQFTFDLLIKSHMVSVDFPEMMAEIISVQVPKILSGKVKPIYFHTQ
As to the kind of experiment: Co-immunoprecipitation of β-catenin followed by Western analysis for AR in L929 cells. Particulars: 300 nM (30-fold excess) in presence of 10 nM DHT, 17 hours.
Description: Cell lysates were harvested, precleared with protein A/G sepharose, and β-catenin was immunoprecipitated using a goat polyclonal IgG against β-catenin conjugated to agarose (Santa Cruz Biotechnology). The immunoprecipitates were analyzed by polyacrylamide gel electrophoresis followed by Western analysis for AR and β-catenin (β-cat) as indicated using antibodies from Santa Cruz (FIG. 2).

In the case of `C[C@H](O)C(=O)[C@@]1(C)CC[C@H]2[C@@H]3CCC4=CC(=O)CCC4=C3CC[C@@]21C` [trimegestone], the “reporter (luciferase) activity” value in experiment [1] is reported as “not”. Further, the “activity in the one-hybrid assay (reporter activity)” value (“activity in the one-hybrid assay” for short) in experiment [2] and in experiment [3] was “no activity” in each case.
For `C[C@]12CCC(=O)C[C@@H]1CC[C@@H]1[C@@H]2CC[C@]2(C)[C@@H](O)CC[C@@H]12` [DHT, dihydrotestosterone], the “activity in the one-hybrid assay” value in experiment [2] and in experiment [3] was “no activity” in each case.
`C[C@]12CC[C@@H]3c4ccc(O)cc4CC[C@H]3[C@@H]1CC[C@@H]2O` [17β-estradiol]: the “activity in the one-hybrid assay” value in experiment [2] and in experiment [3] was “no activity” each time.
Take `CC(C)(O)C(=O)Nc1ccc([N+](=O)[O-])c(C(F)(F)F)c1` [hydroxyflutamide]: in experiment [4], the “effect on DHT-stimulated AR/β-catenin protein-protein interaction” value is “attenuated”.
